# In patent US20140178305A1, “IDENTIFICATION AND USE OF ANXIOLYTIC COMPOUNDS” (CALIFORNIA INSTITUTE OF TECHNOLOGY, priority 2012, published 2014):
# Entries after “also recorded” stand apart in the source; their conditions may differ.
# How the values were obtained:
# [1] = tested on: MRGPRB4+ spinal afferent fibres co-expressing GCaMP3.0 and hM3DREADD; assay: Calcium imaging after spinal application of CNO in MrgprB4+ fibres expressing hM3DREADD and GCaMP3.0; format: in vivo, mouse; conditions: CNO 1.5 mM, mice co-injected with GCaMP3.0 and hM3DREADD viruses
# Protocol: KCl, final concentration (60 mM), α,β-methyl ATP (5 mM) and CNO (1.5 mM) were delivered manually to the imaging bath using a pipetman pipette.
# The stimuli used to activate MRGPRB41 fibres were designed to mimic stroking and allogrooming stimuli. […] To determine whether direct activation of MRGPRB41 neurons could similarly promote a preference for the location in which this stimulation occurred, a pharmacogenetic strategy was used. Juvenile (1-month-old) Mrgprb4-cre male mice were injected neonatally with an AAV encoding the hM3-(Gq-coupled)DREADD19, the activation of which by clozapine-N-oxide (CNO) causes membrane depolarization (FIG. 4a).
# Spinal application of CNO was employed to image activation of hM3DREADD and GCaMP3.0-expressing MrgprB4^+ fibers. The low probability of double-infection of individual MrgprB4^+ neurons with both the GCaMP3.0 and hM3DREADD Cre-dependent viruses (˜30%), taken together with the difficulty of identifying sites for focal peripheral injection corresponding to specific MrgprB4^+ central afferent fibers visualized in the spinal cord, precluded peripheral delivery of CNO for this assay.
# MRGPRB4+ fibres = assay: Two-photon in vivo calcium imaging (GCaMP3.0) of central afferent fibres through a spinal cord laminectomy, chemical stimuli; set-up: species or system mouse; conditions: CNO, mice injected only with GCaMP3.0 viruses (no hM3DREADD)
# Protocol: Mice expressing reporters and/or Cre recombinase targeted to the MrgprB4 locus were generated by homologous recombination in embryonic stem cells, according to standard procedures. Heterozygous neonates from MrgprD-Cre and MrgprB4-Cre mice were injected intraperitoneally with Cre-dependent AAV8 viruses expressing GCaMP3.0 or mGCaMP3.0 or hM3(Gq-coupled) DREADD, and imaged as adults (≧8 weeks old).
# Electrophysiology experiments on ex vivo skin-nerve preparations from adult heterozygous Mrgprb4-EGFPf reporter mice were performed as described in Woodbury, et al. J. Comp. Neurol. 436, 304-323 (2001). For calcium imaging, after a dorsal laminectomy the spinal column was stabilized and filled with imaging solution (see below for details). Imaging was performed using a two-photon laser-scanning microscope (Ultima, Prairie Inc.) using an Olympus 40×0.8 N.A. water immersion objective, at 128×128 pixel resolution with an acquisition rate of 8-12 frames per second. Mechanical stimuli were delivered using a custom-modified No. 5 sable paint brush or serrated forceps, in a manner electronically time-stamped to image acquisition, as may be seen in FIGS. 18A-18C and further discussed below. Stimuli were delivered to each mouse in a series of trials, separated by a few minutes; each trial consisted of one or more stimuli delivered typically at intervals of several seconds. Chemical stimuli were delivered to the spinal cord using a Pipetman pipette and to the periphery using a syringe pump. Calcium responses were analysed using custom software written in Matlab (see below for more details). For calculating ΔF/F [(Fav−F0)/F0], F0 is the average of the first ten frames of the recording period.
# Mice 2 months or older were sedated by i.p. injection of a mix of ketamine (100 mg/kg), xylazine (15 mg/kg), acepromazine (2.5 mg/kg in 0.9% NaCl). During surgery, body temperature was maintained at 37° C. with a heating blanket.
# A dorsal laminectomy was performed mostly at spinal level L2-L4 (but occasionally at L1-L3) as described in Johannssen, et al. J. Physiol. (Lond.) 588:3397-3402 (2010), but without removing the dura. The spinal column was stabilized using Narishige STS-A spinal clamps. In addition a head-holding adaptor from Kopf (923-B Mouse Gas Anaesthesia Head Holder) was used that has installed an anaesthesia/gas mask for positioning the mouse head. In this apparatus the gas is applied through a standard hose barb positioned above the nose on the mask. The inlet fills a large gas chamber around the snout, a second hose barb below the mask is provided for vacuuming off excess, expelled gasses. The animals were maintained under continuous anaesthesia for the duration of the imaging experiments with 1-2% isofluorane or with hourly injections of the above ketamine mix. A well was built around the exposed spinal cord using Gelseal (Amersham Biosciences Corp) and Kwik Sil Adhesive (WPI). Warm imaging solution (in mM: 130 NaCl, 3 KCl, 2.5 CaCl2, 0.6 6H2O.MgCl2, 10 HEPES without Na, 1.2 NaHCO3, 10 glucose, pH7.45 with NaOH) (37° C.) was repeatedly applied to prevent drying and maintain tissue integrity, and to allow the use of immersion objectives. During imaging the body temperature of the animals was maintained at 37° C. with a heating blanket and an air-therm heater (WPI) placed inside the microscope area.
# Imaging experiments were performed under a two-photon laser-scanning microscope (Ultima, Prairie Instruments Inc.). Live images were acquired at 8-12 frames per second, at depths below the pia ranging from 100 to 250 μm, using an Olympus 40×0.8 N.A. water immersion objective, at 128×128 pixel resolution with a laser tuned to 940 nm wavelength, and emission filters 525/50 nm and 595/50 nm for green and red fluorescence, respectively. Laser power was adjusted to be 20-25 mW at the focal plane (maximally 35 mW), depending on the imaging depth and level of expression of GCaMP3.0. […]
structure (smiles),measurement,setting,value
"C[N+]1([O-])CCN(C2=Nc3cc(Cl)ccc3Nc3ccccc32)CC1 [CNO, Clozapine-N-oxide]",calcium transients after application to the spinal cord,[1],able to induce calcium transients; also recorded: robust calcium transients
same,calcium transients after application to the spinal cord,MRGPRB4+ fibres,no CNO responses
